Measurements reported in US9216999B2, “Substituted pyrrolo[2,3-h][1,6]naphthyridines and compositions thereof as JAK inhibitors” (priority 2011, dated 2015).
Where two headings read alike, the source gives them in different places.

Tests used:
Format in all cases: biochemical
JAK2 = JAK2 (Homo sapiens (Human), UniProt O60674); experiment: Enzyme assay (Assay Example^a 1), JAK2; conditions: ATP 100 μM
Tyk2 = Tyk2 (Homo sapiens (Human), UniProt P29597); experiment: Enzyme assay (Assay Example^a 1), Tyk2; conditions: ATP 100 μM
Tyk2, sequence (P29597 whole entry): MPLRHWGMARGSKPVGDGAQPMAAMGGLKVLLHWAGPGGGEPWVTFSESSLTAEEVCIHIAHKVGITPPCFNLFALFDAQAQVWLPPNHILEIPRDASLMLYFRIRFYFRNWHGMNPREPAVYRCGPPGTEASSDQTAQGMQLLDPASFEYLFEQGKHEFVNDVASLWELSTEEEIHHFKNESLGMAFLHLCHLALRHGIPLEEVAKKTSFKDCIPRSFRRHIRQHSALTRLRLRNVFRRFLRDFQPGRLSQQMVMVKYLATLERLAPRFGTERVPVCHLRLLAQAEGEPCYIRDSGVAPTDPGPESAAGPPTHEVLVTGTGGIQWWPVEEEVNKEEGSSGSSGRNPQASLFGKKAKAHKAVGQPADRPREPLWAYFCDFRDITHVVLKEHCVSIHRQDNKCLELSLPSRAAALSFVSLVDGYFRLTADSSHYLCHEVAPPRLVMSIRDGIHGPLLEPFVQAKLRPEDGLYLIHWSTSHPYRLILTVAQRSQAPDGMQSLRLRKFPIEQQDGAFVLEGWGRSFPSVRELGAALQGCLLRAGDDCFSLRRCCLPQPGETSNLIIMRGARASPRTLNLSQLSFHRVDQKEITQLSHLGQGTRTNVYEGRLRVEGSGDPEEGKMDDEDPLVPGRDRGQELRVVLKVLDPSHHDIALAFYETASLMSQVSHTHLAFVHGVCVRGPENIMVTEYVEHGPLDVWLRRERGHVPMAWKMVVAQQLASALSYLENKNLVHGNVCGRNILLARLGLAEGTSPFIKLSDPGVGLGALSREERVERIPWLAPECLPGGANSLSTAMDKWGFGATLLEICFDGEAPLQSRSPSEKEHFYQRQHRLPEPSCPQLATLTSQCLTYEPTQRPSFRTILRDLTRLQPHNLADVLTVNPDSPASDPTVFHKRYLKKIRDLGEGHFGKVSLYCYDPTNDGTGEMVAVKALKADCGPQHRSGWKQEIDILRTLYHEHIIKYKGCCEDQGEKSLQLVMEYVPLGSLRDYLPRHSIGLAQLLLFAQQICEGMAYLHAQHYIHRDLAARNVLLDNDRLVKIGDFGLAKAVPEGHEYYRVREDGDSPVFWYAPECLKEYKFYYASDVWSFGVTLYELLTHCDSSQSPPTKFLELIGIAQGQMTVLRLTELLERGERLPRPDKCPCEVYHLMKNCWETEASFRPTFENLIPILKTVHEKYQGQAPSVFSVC

JAK1 = JAK1 (Homo sapiens (Human), UniProt P23458); experiment: Enzyme assay (Assay Example^a 1), JAK1; conditions: ATP 100 μM
JAK3 = JAK3 (Homo sapiens (Human), UniProt P52333); experiment: Enzyme assay (Assay Example^a 1), JAK3
JAK3, sequence (P52333 whole entry): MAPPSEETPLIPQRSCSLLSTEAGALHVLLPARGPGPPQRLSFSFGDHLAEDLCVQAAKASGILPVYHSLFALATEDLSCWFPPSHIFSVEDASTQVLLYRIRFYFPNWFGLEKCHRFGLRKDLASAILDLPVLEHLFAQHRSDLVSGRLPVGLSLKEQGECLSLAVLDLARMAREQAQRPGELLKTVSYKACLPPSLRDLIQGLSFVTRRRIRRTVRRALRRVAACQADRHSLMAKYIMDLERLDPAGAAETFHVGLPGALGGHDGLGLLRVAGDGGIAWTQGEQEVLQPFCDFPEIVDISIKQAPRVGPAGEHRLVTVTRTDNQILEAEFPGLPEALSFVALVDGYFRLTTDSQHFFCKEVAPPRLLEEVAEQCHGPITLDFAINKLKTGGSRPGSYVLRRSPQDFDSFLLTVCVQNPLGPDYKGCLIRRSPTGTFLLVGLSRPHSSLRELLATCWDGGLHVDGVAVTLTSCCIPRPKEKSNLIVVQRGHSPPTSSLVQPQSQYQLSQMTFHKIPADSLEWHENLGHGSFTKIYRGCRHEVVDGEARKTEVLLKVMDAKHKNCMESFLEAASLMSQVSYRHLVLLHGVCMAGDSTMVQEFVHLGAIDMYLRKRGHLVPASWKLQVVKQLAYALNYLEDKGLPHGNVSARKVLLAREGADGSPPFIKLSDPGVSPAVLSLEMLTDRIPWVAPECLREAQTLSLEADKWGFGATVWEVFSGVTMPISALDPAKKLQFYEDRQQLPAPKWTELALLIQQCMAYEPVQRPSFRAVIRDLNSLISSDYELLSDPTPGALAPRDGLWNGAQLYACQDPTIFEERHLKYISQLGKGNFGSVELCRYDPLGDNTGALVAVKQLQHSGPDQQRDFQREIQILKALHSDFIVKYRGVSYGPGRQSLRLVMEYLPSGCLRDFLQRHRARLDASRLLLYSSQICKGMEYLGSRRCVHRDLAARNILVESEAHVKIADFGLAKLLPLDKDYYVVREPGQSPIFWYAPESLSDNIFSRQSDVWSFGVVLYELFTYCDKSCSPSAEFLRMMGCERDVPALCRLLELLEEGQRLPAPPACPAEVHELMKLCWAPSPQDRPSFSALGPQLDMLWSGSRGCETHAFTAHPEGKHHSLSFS

SMILES	IC50 (JAK2) [µM]	IC50 (Tyk2) [µM]	IC50 (JAK1) [µM]	IC50 (JAK3; ATP 100 μM) [µM]	IC50 (JAK2; Table^a 154) [µM]	IC50 (Tyk2; Table^a 154) [µM]	IC50 (JAK1; Table^a 154) [µM]	IC50 (JAK3; ATP 100 μM, Table^a 154) [µM]	IC50 (JAK3) [µM]
FC(F)(F)C1CCN(C[C@H]2CC[C@H](c3nnn4cnc5[nH]ccc5c34)CC2)CC1 [compound 258, 1-(trans-4-{[4-(trifluoromethyl)piperidin-1-yl]methyl}cyclohexyl)-7H-pyrrolo[3,2-e][1,2,3]triazolo[1,5-c]pyrimidine]	0.081	0.74	0.012	> 1	–	–	–	–	–
O=C(C[C@H]1CC[C@H](c2nnn3cnc4[nH]ccc4c23)CC1)NCC(F)(F)F [442b, 2-[trans-4-(7H-Pyrrolo[3,2-e][1,2,3]triazolo[1,5-c]pyrimidin-1-yl)cyclohexyl]-N-2,2,2-trifluoroethylacetamide]	0.014	0.88	0.0032	0.1	–	–	–	–	–
COCCN(CCOC)C[C@H]1CC[C@H](c2nnn3cnc4[nH]ccc4c23)CC1 [compound 326, N-{[trans-4-(7H-pyrrolo[3,2-e][1,2,3]triazolo[1,5-c]pyrimidin-1-yl)cyclohexyl]methyl}-2-methoxy-N-(2-methoxyethyl)ethanamine]	0.31	> 1	0.048	> 1	–	–	–	–	–
Fc1ccc(NC[C@H]2CC[C@H](c3nnn4cnc5[nH]ccc5c34)CC2)cc1F [compound 249, N-{[trans-4-(7H-pyrrolo[3,2-e][1,2,3]triazolo[1,5-c]pyrimidin-1-yl)cyclohexyl]methyl}-3,4-difluoroaniline]	0.056	0.86	0.017	0.49	–	–	–	–	–
c1cc2c(ncn3nnc([C@H]4CC[C@H](CNC5CC5)CC4)c23)[nH]1 [compound 280, N-{[trans-4-(7H-pyrrolo[3,2-e][1,2,3]triazolo[1,5-c]pyrimidin-1-yl)cyclohexyl]methyl}cyclopropanamine]	0.062	0.1	0.0019	0.68	–	–	–	–	–
Cc1ccccc1-c1nnn2cnc3[nH]ccc3c12 [compound 5]	0.13	0.13	0.02	0.26	–	–	–	–	–
FC(F)C(F)(F)Oc1ccc(CN2CCC(c3nnn4cnc5[nH]ccc5c34)CC2)cc1 [compound 169, 1-{1-[4-(1,1,2,2-tetrafluoroethoxy)benzyl]piperidin-4-yl}-7H-pyrrolo[3,2-e][1,2,3]triazolo[1,5-c]pyrimidine]	–	–	–	–	0.052	> 1	0.005	0.58	–
FC1(F)Oc2ccc(NC[C@H]3CC[C@H](c4nnn5cnc6[nH]ccc6c45)CC3)cc2O1 [compound 275, N-{[trans-4-(7H-pyrrolo[3,2-e][1,2,3]triazolo[1,5-c]pyrimidin-1-yl)cyclohexyl]methyl}-2,2-difluorobenzo[d][1,3]dioxol-5-amine]	0.065	0.52	0.0067	0.85	–	–	–	–	–
Clc1cc(CN2CCC(c3nnn4cnc5[nH]ccc5c34)CC2)ccn1 [compound 160]	–	–	–	–	0.021	0.26	0.0053	0.35	–
S=c1[nH]c(C2CCCCC2)c2c3cc[nH]c3ncn12 [compound 8]	0.03	0.036	0.02	0.43	–	–	–	–	–
CC(NC[C@H]1CC[C@H](c2nnn3cnc4[nH]ccc4c23)CC1)c1ccc(F)c(F)c1 (mixture of isomers) [compound 109]	–	–	–	–	0.011	0.072	0.0016	0.16	–
c1cc2c(ncn3nnc(C4CCN(Cc5cscn5)CC4)c23)[nH]1 [compound 240, 4-{[4-(7H-pyrrolo[3,2-e][1,2,3]triazolo[1,5-c]pyrimidin-1-yl)piperidin-1-yl]methyl}thiazole]	0.11	> 1	0.039	0.6	–	–	–	–	–
N#CCCN[C@H]1CC[C@H](c2nnn3cnc4[nH]ccc4c23)CC1 [394b, 3-{[trans-4-(7H-pyrrolo[3,2-e][1,2,3]triazolo[1,5-c]pyrimidin-1-yl)cyclohexyl]amino}propanenitrile]	0.09	> 1	0.015	> 1	–	–	–	–	–
N#CC1CC12CCC(c1nnn3cnc4[nH]ccc4c13)CC2 (stereo not shown) [compound 444, 6-(7H-Pyrrolo[3,2-e][1,2,3]triazolo[1,5-c]pyrimidin-1-yl)spiro[2.5]octane-1-carbonitrile]	0.009	0.045	0.0034	0.25	–	–	–	–	–
CN(CCO)C[C@H]1CC[C@H](c2nnn3cnc4[nH]ccc4c23)CC1 [compound 297, 2-({[trans-4-(7H-pyrrolo[3,2-e][1,2,3]triazolo[1,5-c]pyrimidin-1-yl)cyclohexyl]methyl}(methyl)amino)ethanol]	0.1	0.32	0.0095	> 1	–	–	–	–	–
FCCNC[C@H]1CC[C@H](c2nnn3cnc4[nH]ccc4c23)CC1 [compound 107]	–	–	–	–	0.055	0.036	0.0028	–	0.28
c1csc(CN2CCC(c3nnn4cnc5[nH]ccc5c34)CC2)n1 [compound 48]	–	–	–	–	0.054	0.46	0.022	0.44	–
N#Cc1ccc(NC[C@H]2CC[C@H](c3nnn4cnc5[nH]ccc5c34)CC2)cc1C(F)(F)F [compound 105]	–	–	–	–	0.19	0.37	–	> 1	–

SMILES	IC50 (JAK2) [µM]	IC50 (Tyk2) [µM]	IC50 (JAK1) [µM]	IC50 (JAK3; ATP 100 μM) [µM]	IC50 (JAK2; Table^a 154) [µM]	IC50 (Tyk2; Table^a 154) [µM]	IC50 (JAK1; Table^a 154) [µM]	IC50 (JAK3; ATP 100 μM, Table^a 154) [µM]	IC50 (JAK3) [µM]
FC(F)(F)Oc1ccc(CNC[C@H]2CC[C@H](c3nnn4cnc5[nH]ccc5c34)CC2)cc1 [compound 110]	–	–	–	–	0.091	–	0.0056	–	–
OC(CN[C@H]1CC[C@@H](c2nnn3cnc4[nH]ccc4c23)CC1)(c1ccccc1)C(F)(F)F (mixture of isomers) [196a, 3-{[cis-4-(7H-pyrrolo[3,2-e][1,2,3]triazolo[1,5-c]pyrimidin-1-yl)cyclohexyl]amino}-1,1,1-trifluoro-2-phenylpropan-2-ol]	–	–	–	–	0.75	–	0.06	–	–
Fc1ccc(C2(NC[C@H]3CC[C@H](c4nnn5cnc6[nH]ccc6c45)CC3)CC2)cc1 [compound 323, N-{[trans-4-(7H-pyrrolo[3,2-e][1,2,3]triazolo[1,5-c]pyrimidin-1-yl)cyclohexyl]methyl}-1-(4-fluorophenyl)cyclopropanamine]	0.034	0.78	–	0.83	–	–	–	–	–
N#CC(C#N)C[C@H]1CC[C@H](c2nnn3cnc4[nH]ccc4c23)CC1 [compound 432, 2-{[trans-4-(7H-Pyrrolo[3,2-e][1,2,3]triazolo[1,5-c]pyrimidin-1-yl)cyclohexyl]methyl}malononitrile]	0.0088	0.067	–	0.17	–	–	–	–	–
O=C(OCc1ccccc1)N1CCCC(c2nnn3cnc4[nH]ccc4c23)C1 (racemic) [compound 14]	–	–	–	–	0.11	2.2	0.021	–	–
OC(CN[C@H]1CC[C@H](c2nnn3cnc4[nH]ccc4c23)CC1)(c1ccc(Cl)cc1)C(F)(F)F (mixture of isomers) [199b, 3-((trans-4-(7H-pyrrolo[3,2-e][1,2,3]triazolo[1,5-c]pyrimidin-1-yl)cyclohexyl)amino)-2-(4-chlorophenyl)-1,1,1-trifluoropropan-2-ol]	–	–	–	–	0.035	0.44	0.0035	–	–
c1cc2c(ncn3nnc(C4CCCCCC4)c23)[nH]1 [compound 66]	–	–	–	–	0.013	0.027	0.0033	–	–
c1cc2c(ncn3cnc(C4CCCCC4)c23)[nH]1 [compound 2]	0.017	–	0.014	–	–	–	–	–	–
FC(F)(F)c1cc(CN2CCC(c3nnn4cnc5[nH]ccc5c34)CC2)ccc1Cl [compound 155]	–	–	–	–	0.032	–	0.011	–	–
FC1(F)CCC(c2nnn3cnc4[nH]ccc4c23)CC1 [compound 64]	–	–	–	–	0.12	0.31	0.033	–	–
OC(CN[C@H]1CC[C@H](c2nnn3cnc4[nH]ccc4c23)CC1)(c1ccc(F)cc1)C(F)(F)F (mixture of isomers) [200b, 3-{[trans-4-(7H-pyrrolo[3,2-e][1,2,3]triazolo[1,5-c]pyrimidin-1-yl)cyclohexyl]amino}-1,1,1-trifluoro-2-(4-fluorophenyl)propan-2-ol]	–	–	–	–	0.032	0.24	0.0025	–	–
OC(CNC[C@H]1CC[C@H](c2nnn3cnc4[nH]ccc4c23)CC1)(c1ccccc1)C(F)(F)F (mixture of isomers) [compound 172, 3-({[trans-4-(7H-pyrrolo[3,2-e][1,2,3]triazolo[1,5-c]pyrimidin-1-yl)cyclohexyl]methyl}amino)-1,1,1-trifluoro-2-phenylpropan-2-ol]	–	–	–	–	0.093	0.63	0.013	–	–
Cc1cc(OC(F)(F)F)ccc1NC[C@H]1CC[C@H](c2nnn3cnc4[nH]ccc4c23)CC1 [compound 104]	–	–	–	–	> 1	> 1	–	> 1	–
O=S(=O)(C[C@H]1CC[C@H](c2nnn3cnc4[nH]ccc4c23)CC1)c1ccccc1 [compound 364, 1-{trans-4-[(phenylsulfonyl)methyl]cyclohexyl}-7H-pyrrolo[3,2-e][1,2,3]triazolo[1,5-c]pyrimidine]	0.011	–	0.0057	–	–	–	–	–	–
N#Cc1ccc(NC[C@H]2CC[C@H](c3nnn4cnc5[nH]ccc5c34)CC2)cc1Cl [compound 247, 4-({[trans-4-(7H-pyrrolo[3,2-e][1,2,3]triazolo[1,5-c]pyrimidin-1-yl)cyclohexyl]methyl}amino)-2-chlorobenzonitrile]	0.09	> 1	0.013	–	–	–	–	–	–
OC(CN[C@H]1CC[C@H](c2nnn3cnc4[nH]ccc4c23)CC1)(c1ccccc1)C(F)(F)F (mixture of isomers) [196b, 3-{[trans-4-(7H-pyrrolo[3,2-e][1,2,3]triazolo[1,5-c]pyrimidin-1-yl)cyclohexyl]amino}-1,1,1-trifluoro-2-phenylpropan-2-ol]	–	–	–	–	0.036	–	0.0032	–	–
OC(CN1CCC(c2nnn3cnc4[nH]ccc4c23)CC1)c1ccc(C(F)(F)F)cc1 (racemic) [compound 212, 2-[4-(7H-Pyrrolo[3,2-e][1,2,3]triazolo[1,5-c]pyrimidin-1-yl)piperidin-1-yl]-1-[4-(trifluoromethyl)phenyl]ethanol]	–	–	–	–	0.047	0.45	–	–	–
